Experimental data reported in publication PMC10725504, “The co-crystal structure of Cbl-b and a small-molecule inhibitor reveals the mechanism of Cbl-b inhibition” (Communications Biology, 2023).

Molecular target: T1, Cbl-b (Homo sapiens, UniProt Q13191)
T1 construct: gene CBLB; TKBD-LHR-RING (38–427) and full-length (1–982)
Assay: FP-based displacement assay (fluorescent probe)
Format: binding

T1 sequence (Q13191 38-427): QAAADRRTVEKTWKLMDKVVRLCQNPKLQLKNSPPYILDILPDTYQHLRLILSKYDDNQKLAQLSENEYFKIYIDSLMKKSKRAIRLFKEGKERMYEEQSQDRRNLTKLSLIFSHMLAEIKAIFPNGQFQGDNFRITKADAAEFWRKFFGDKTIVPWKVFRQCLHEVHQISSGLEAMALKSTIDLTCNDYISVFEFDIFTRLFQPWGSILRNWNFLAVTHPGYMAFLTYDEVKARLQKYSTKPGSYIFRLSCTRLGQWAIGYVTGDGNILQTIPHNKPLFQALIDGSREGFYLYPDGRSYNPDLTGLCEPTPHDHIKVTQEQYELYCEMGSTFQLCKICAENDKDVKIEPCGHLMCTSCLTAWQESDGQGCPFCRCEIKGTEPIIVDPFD

CC1=CC(C)=[N+]2C1=Cc1ccc(CCC(=O)NCCOCCOCCOCCNCc3ccc(C(=O)Nc4cccc([C@H](C)Cc5nncn5C)c4)nc3C3CC3)n1[B-]2(F)F [C7102]
FP-based displacement assay (fluorescent probe): C7683 displaced binding of C7102 to both TKBD-LHR-RING and full-length proteins in a concentration dependent manner
